Measured values published in patent publication US20200352976A1, “HYPOMETHYLATING AGENTS FOR USE IN TREATMENT OF CANCER” (Otsuka Pharmaceutical Co., Ltd, priority 2019, published 2020).

Columns and labels:
[1] = test system: LINE-1 repeats (global DNA methylation); assay: LINE-1 methylation assay on whole blood (global DNA methylation), Phase 1/2 trial; assay type: in vivo, human
Protocol: Whole-blood samples were collected immediately before treatment, once a week during the first treatment cycle, and then on day 1 of subsequent cycles for demethylation analysis. Global DNA methylation was measured by the long interspersed nuclear element-1 (LINE-1) methylation assay. The LINE-1 assay measures methylation levels of LINE-1 repeats, which serve as a surrogate for global DNA methylation levels. Results of LINE-1 assays were used to assess and changes in methylation from baseline.
Activity and safety endpoints were evaluated for all patients who received at least one dose of study drug, and no patients who received treatment were excluded from the analyses. […] Time to response and duration of response were summarized in days using descriptive statistics. Overall survival was analyzed using the Kaplan-Meier method, with survival time censored on the last date of contact if the patient was alive or lost to follow-up. Blood and platelet transfusion independence were summarized descriptively in the subset of patients who were transfusion-dependent at baseline. Change from baseline LINE-1 methylation and maximum LINE-1 demethylation were also summarized descriptively, with maximum LINE-1 demethylation defined as the largest percent decrease from baseline in methylation values by patient between days 8 and 22 of the first treatment cycle.

[2] = Phase 3 trial safety: adverse events, ECG, mortality; assay type: in vivo
Source text: Two co-primary endpoints were used: complete response (CR) rate based on modified International Working Group (IWG) 2003 AML Response Criteria and OS (the number of days from randomization to death). Secondary endpoints included CRc (CR+CR with incomplete blood count recovery [CRi]+CR with incomplete platelet recovery [CRp]) rate, number of days alive and out of the hospital (NDAOH), progression-free survival (PFS), health related quality of life (QOL) by EQ-5D (consisting of the EQ-5D-5L descriptive system and the EQ Visual Analogue Scale [EQ VAS]), duration of CR (the time from first CR to time of relapse), incidence and severity of adverse events (AEs), and 30- and 60-day all-cause mortality.
The incidence and severity of adverse events (AEs) and 30- and 60-day all-cause mortality were summarized with descriptive statistics. No formal statistical testing between the treatment groups was planned for safety assessments.

Nc1ncn([C@H]2CC(OP(=O)(O)OC[C@H]3O[C@@H](n4cnc5c(=O)[nH]c(N)nc54)CC3O)[C@@H](CO)O2)c(=O)n1 (stereo partly drawn) [Compound I-1]
Mean maximum LINE-1 demethylation ([1]; 60 mg/m^2): 23.9%
Mean maximum LINE-1 demethylation ([1]; 90 mg/m^2): 28.2%
Mean maximum LINE-1 demethylation ([1]; relapsed or refractory): 28.9%
Time of maximum extent of global DNA demethylation ([1]; returned to pretreatment levels by day 28): ~8 days
Mean maximum LINE-1 demethylation ([1]; treatment-naïve): 28.6%
Mean maximum LINE-1 demethylation ([1]; with objective treatment response): 28.1%
Mean maximum LINE-1 demethylation ([1]; without objective treatment response): 29.4%
Related AE with an outcome of death, each of: hematophagy histiocytosis, small intestinal hemorrhage, general physical health deterioration, mucormycosis, osteonecrosis ([2]; 1 subject each): 0.2%
Discontinuations due to a related AE that was an infection event ([2]; human, in vivo): 7 subjects
Dose reductions due to AEs ([2]; human, in vivo): 6.0%
Related SAE anemia ([2]; human, in vivo): 1.0%
Related SAE febrile neutropenia ([2]; human, in vivo): 13.7%
Related SAE pneumonia ([2]; human, in vivo): 8.5%
Related SAE sepsis ([2]; human, in vivo): 4.0%
Related SAE septic shock ([2]; human, in vivo): 1.2%
Related SAE thrombocytopenia ([2]; human, in vivo): 1.7%
SAE febrile neutropenia incidence ([2]; human, in vivo): 25.2%
SAE pneumonia incidence ([2]; human, in vivo): 28.4%
SAE sepsis incidence ([2]; human, in vivo): 15.0%
Treatment Discontinuation Before 4 Cycles: Adverse Event ([2]; human, in vivo): 6.4%
Treatment Discontinuation Before 6 Cycles: Adverse Event ([2]; human, in vivo): 7.4%
Treatment delays due to adverse events ([2]; human, in vivo): 48.1%
AE with an outcome of death: febrile neutropenia ([2]; human, in vivo, 60 mg/m^2): 0.2%
AE with an outcome of death: pneumonia ([2]; human, in vivo, 60 mg/m^2): 5.0%
AE with an outcome of death: sepsis ([2]; human, in vivo, 60 mg/m^2): 6.5%
AE with an outcome of death: septic shock ([2]; human, in vivo, 60 mg/m^2): 2.0%
Related AE with an outcome of death: febrile neutropenia ([2]; human, in vivo, 60 mg/m^2): 0.2%
Thirty-day all-cause mortality ([2]; human, in vivo, 60 mg/m^2, 30 day): 11.2%
60-day mortality ([2]; human, in vivo, 60 mg/m^2, 60 day): 20.9%
Effect on heart rate (ECG) ([2]; in vivo): no effect on heart rate
Effects on ECG parameters ([2]; in vivo): No effects on ECG parameters were observed
Treatment Discontinuation Before 4 Cycles: Death ([2]; n = 408 I-1, n = 407 TC): 17.6%
Treatment Discontinuation Before 6 Cycles: Death ([2]; n = 408 I-1, n = 407 TC): 22.5%
